This note sets out measurements from ChEMBL document CHEMBL1201862, “PubChem BioAssay data set” (2004).

The nature of assay [1]: human group III sPLA2 inhibitors, dose response, biochemical, QFRET, IC50 (AID 743457).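 Further: green fluorescence rise as the enzyme cleaves BODIPY PC-A2 in liposomes; potency for inhibition of the enzyme.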
Assay [2] can be described thus: Luminescence Cell-Based Dose Response HTS to Identify Inhibitors of 5'UTR Stem-Loop Driven Prion Protein mRNA Translation in H4 Neuroglioblastoma Cells. [Related pubchem assays: 1827 (Project Summary), 1813 (Primary HTS)]. Type of assay: functional.
A short description of assay [3]: insulin promoter down-regulators in MIN6 cells, imaging, high-content screening, mouse beta cells (AID 1628). The format is functional.
Assay [4] in a line: inhibitors of firefly luciferase expression or activity, dose response, H4 neuroglioma cells, luminescence (AID 1990). The format is functional, cell-based.
The target in assay [5] is T1, Alkaline phosphatase, tissue-nonspecific isozyme (Homo sapiens, UniProt P05186).
T1 sequence (P05186 whole entry): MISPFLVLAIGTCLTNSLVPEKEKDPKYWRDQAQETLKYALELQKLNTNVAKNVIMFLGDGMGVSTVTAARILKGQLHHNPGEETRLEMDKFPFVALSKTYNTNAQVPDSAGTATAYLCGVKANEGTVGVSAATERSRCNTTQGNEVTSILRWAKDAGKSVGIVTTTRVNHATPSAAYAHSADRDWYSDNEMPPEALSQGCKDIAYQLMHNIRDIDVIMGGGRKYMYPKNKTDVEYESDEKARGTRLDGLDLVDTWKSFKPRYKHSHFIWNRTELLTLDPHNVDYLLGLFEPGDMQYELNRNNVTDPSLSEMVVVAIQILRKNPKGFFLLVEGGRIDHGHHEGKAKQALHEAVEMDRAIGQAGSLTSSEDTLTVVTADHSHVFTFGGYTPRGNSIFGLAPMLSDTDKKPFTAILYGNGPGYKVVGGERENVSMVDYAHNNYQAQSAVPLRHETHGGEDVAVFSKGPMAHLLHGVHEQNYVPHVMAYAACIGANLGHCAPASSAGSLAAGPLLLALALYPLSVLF
Description: TNAP enzyme activators, dose response, selectivity assay for human IAP activator project, biochemical, TNAP isozyme, human IAP uHTS hits (AID 488886).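 Further: potency of compounds raising TNAP activity as a selectivity check on IAP activators.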 The format is functional.

A short description of assay [6]: inhibitors of SNCA 5'UTR-driven reporter translation, confirmation, H4 neuroglioma cells, luminescence (AID 1988). The format is functional, cell-based.
For assay [7], the target named is Intestinal-type alkaline phosphatase (Mus musculus, UniProt P24822). As to the kind of experiment: PubChem AID 488874. Type of assay: functional.
Chain of Intestinal-type alkaline phosphatase (P24822 whole entry): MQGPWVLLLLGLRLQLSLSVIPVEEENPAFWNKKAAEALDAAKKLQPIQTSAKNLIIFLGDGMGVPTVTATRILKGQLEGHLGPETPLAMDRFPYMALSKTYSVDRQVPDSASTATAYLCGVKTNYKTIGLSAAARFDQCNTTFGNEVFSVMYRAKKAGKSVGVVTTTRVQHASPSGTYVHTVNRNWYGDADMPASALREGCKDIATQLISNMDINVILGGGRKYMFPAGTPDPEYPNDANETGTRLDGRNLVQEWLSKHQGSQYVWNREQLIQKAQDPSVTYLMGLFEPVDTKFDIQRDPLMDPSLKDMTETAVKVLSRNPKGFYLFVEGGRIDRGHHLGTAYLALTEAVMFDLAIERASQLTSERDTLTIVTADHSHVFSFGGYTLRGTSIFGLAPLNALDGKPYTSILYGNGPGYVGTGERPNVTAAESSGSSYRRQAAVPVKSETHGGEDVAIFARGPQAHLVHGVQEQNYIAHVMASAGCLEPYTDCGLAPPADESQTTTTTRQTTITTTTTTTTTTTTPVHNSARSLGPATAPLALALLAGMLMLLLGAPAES
Another assay has as its target T2, Caspase-6 (Homo sapiens, UniProt P55212).
T2 sequence (P55212 whole entry): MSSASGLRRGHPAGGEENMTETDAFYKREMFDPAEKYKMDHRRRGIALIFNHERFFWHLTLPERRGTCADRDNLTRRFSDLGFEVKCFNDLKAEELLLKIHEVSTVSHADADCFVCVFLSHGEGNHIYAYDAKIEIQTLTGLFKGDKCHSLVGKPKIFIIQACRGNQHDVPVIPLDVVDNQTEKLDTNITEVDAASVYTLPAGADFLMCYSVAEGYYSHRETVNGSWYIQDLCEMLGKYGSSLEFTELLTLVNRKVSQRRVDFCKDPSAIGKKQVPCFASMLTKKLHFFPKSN
Description: human caspase-6 inhibitors, dose response, biochemical, VEID-R110 fluorescence, cherry-pick (AID 720632).

Assay [8] concerns the target T3, Sentrin-specific protease 8 (Homo sapiens, UniProt Q96LD8).
T3 sequence (Q96LD8 whole entry): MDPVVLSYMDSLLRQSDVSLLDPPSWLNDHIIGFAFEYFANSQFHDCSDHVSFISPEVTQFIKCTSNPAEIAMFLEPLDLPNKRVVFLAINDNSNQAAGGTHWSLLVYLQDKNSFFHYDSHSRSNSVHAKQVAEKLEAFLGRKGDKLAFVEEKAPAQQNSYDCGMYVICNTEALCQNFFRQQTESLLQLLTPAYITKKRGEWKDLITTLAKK
Type of assay: functional.

The nature of assay [9]: CEM21 lymphoblast cell cytotoxicity, dose response, cytotoxicity control for viral fusion inhibitor project, CellTiter-Glo luminescence, cherry-picked (AID 652042).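 Further: potency for signal decrease meaning cytotoxicity.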 The format is functional, cell-based. Background: Cellular ATP, detected with luciferase, serves as a proxy for viable cell number.
For a further assay, the target named is Nonstructural protein 1 (Influenza A virus, UniProt Q194T2). The format is functional, Influenza A virus (A/California/07/2009(H1N1)).
Chain of Nonstructural protein 1 (Q194T2 whole entry): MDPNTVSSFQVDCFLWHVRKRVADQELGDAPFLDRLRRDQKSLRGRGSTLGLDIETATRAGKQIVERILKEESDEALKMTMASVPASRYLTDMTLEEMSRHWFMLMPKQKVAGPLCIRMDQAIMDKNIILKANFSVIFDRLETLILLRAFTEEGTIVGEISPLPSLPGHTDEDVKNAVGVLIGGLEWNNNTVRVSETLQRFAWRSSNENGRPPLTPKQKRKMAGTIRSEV
Assay [10] can be described thus: Intein inhibitors as potential Tuberculosis drugs, a cytotoxicity screen. [Related pubchem assays (depositor defined):AID2221, AID2223, AID434968, AID435010, AID449749, AID449750, AID489010]. Type of assay: functional.
Assay [11] in a line: Vero E6 cell cytotoxicity, dose response, cytotoxicity control for non-replicating M. tuberculosis project, secondary assay (AID 492998). Type of assay: functional, VeroE6. The note with it: Vero C1008.
The target in assay [12] is Luciferin 4-monooxygenase (Photinus pyralis, UniProt P08659). Description: Counter Screen for Luciferase-based Assay Positives. [Related pubchem assays: 620, 618, 411 ]. (In general: The purpose of a counterscreen is to sort out artefacts and off-target activity.)
Chain of Luciferin 4-monooxygenase (P08659 whole entry): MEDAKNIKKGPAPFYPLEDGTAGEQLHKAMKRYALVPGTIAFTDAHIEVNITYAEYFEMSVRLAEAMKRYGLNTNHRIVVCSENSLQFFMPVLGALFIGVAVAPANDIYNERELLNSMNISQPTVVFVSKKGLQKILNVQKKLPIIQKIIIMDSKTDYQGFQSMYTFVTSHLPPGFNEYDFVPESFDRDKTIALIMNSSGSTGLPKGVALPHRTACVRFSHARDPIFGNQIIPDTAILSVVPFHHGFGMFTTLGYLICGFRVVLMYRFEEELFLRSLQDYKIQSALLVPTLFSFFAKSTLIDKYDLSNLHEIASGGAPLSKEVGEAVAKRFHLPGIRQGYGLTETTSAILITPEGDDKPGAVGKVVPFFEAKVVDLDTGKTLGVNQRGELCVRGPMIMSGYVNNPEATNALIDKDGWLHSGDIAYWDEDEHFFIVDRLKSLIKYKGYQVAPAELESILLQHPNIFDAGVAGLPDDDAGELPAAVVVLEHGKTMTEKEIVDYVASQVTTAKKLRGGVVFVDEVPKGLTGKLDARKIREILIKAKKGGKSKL
The nature of assay [13]: HepG2 cell cytotoxicity, dose response, cytotoxicity control for non-replicating M. tuberculosis project (AID 489018). The format is functional. The settings on record: Mycobacterium tuberculosis.
A short description of assay [14]: off-target signal loss in HeLa-CEM21 co-culture – HeLa F-luc CTL cells, cherry-picked, counter-screen for HIV-1 Env fusion inhibitor project, dose response (AID 652040).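 Further: potency for signal decrease marking cytotoxic or nonspecific inhibition.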 The format is functional, cell-based.
Assay [15] in a line: microbe, parasite or virus in culture. The settings on record: Mycobacterium tuberculosis. Type of assay: functional.
Assay [16] can be described thus: inhibitors of HIV Env-driven cell fusion, dose response, cherry-pick (AID 652057). Type of assay: functional, cell-based.
The nature of assay [17]: ZM109 Env clade C HIV-1 fusion inhibitors, dose response, HeLa effector, CEM target cells, luciferase, cherry-pick (AID 652058). Type of assay: functional, cell-based.
Assay [18] is described as follows: PAX5 activity inhibitors, dose response, selectivity assay for PAX8 inhibitor project, cell-based, plate reader, dry powder samples (AID 743047).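 Further: HEK293 cells carrying a Pax5 driven CD19 promoter luciferase reporter; potency of inhibitors that lower reporter luminescence.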 The format is functional.
Assay [19] addresses Heat shock protein HSP 90-alpha (Homo sapiens, UniProt P07900). The format is functional, organism-based.
A short description of assay [20]: PAX2 cell-based inhibition, dose response, selectivity assay for PAX8 inhibitor project, plate reader, dry powder samples (AID 743048).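 Further: HEK293 cells carrying a WT1 promoter luciferase reporter driven by expressed Pax2; potency is for inhibition of Pax2 driven reporter signal.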 The format is functional.
A short description of assay [21]: A2780 ovarian cancer cell cytotoxicity, dose response, cytotoxicity control, plate reader, dry powder samples (AID 743046). Type of assay: functional, cell-based.
A short description of assay [22]: IGROV1 ovarian cancer cell cytotoxicity, dose response, PAX8 inhibitor project, plate reader, dry powder samples (AID 743043). Type of assay: functional, cell-based. The settings on record: IGROV-1.
Assay [23] is described as follows: cytotoxicity toward NIH3T3 fibroblasts, dose response, counter-screen, cell-based, ATP luminescence, mouse fibroblasts (AID 2010).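 Further: cells exposed to compound for about 90 hours before reading.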 Type of assay: functional.
Assay [24] can be described thus: cytotoxicity in COV362 ovarian cancer cells, dose response, cytotoxicity control for PAX8 inhibitor project, cell-based, plate reader, dry powder, SA12 (AID 743144). The format is functional.
Assay [25] in a line: inhibitors of intracellular T. cruzi replication, confirmation, NIH3T3 host cells, beta-gal luminescence (AID 2044).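 Further: intracellular parasites grown in NIH/3T3 mouse fibroblasts as host cells; luminescent beta-galactosidase reporter signal from transgenic T. cruzi replicating inside host cells; inhibitors lower the luminescence signal.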 Type of assay: functional, cell-based.
The nature of assay [26]: cells. Type of assay: functional, cell-based.
Assay [27] can be described thus: control 3'UTR Renilla luciferase suppression, dose response, counter-screen for Shn3 inhibitor project, cell-based, Clone20-Shn3RL, cherry-picked (AID 624133). Type of assay: functional.
A short description of assay [28]: Shn3 3'UTR reporter inhibitors, dose response, cell-based, Clone20 osteoblasts, firefly luciferase, cherry-picked (AID 624132).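 Further: firefly luciferase luminescence from reporter carrying the Shn3 3'UTR in osteoblasts.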 The format is functional.
The nature of assay [29]: cells. Type of assay: functional, cell-based. The source holds these as a separate data set.
A short description of assay [30]: cytotoxicity in OVCAR4 cells, dose response, cytotoxicity control for PAX8 inhibitor project, cell-based, plate reader, dry powder, SA11 (AID 743150). Type of assay: functional. The note with it: OVCAR-4.

Active and inactive are the calls of the source. Some results are limits rather than exact numbers.

Turning to `O=C(/C=C/c1cccs1)NC(=S)NNC(=O)c1ccccc1O`, the IC50 (usually the point on the concentration scale where inhibition reaches its midpoint) was > 122 µM (inactive) in assay [1], 2.78 µM (active) in assay [3] and 70.4 µM (active) in assay [7]. For the same molecule, the EC50 (as a rule, the concentration at which the effect is half-maximal) was 9.65 µM (active) in assay [2], > 120 µM (not active) in assay [4], 11.8 µM (active) in assay [5] and > 120 µM (not active) in assay [6].

As for `O=C(N/N=C1\C/C(=N\NC(=O)c2ccncc2)c2ccccc21)c1ccncc1`, on Caspase-6, the AC50 (in general, the concentration giving half of the maximal activity seen) is 0.749 µM (active). Also, the IC50 in assay [8] is 5.02 µM (active).

For the molecule `CC(=O)N(Cc1ccc(F)cc1)C1=C(NCCc2ccccc2)C(=O)c2ccccc2C1=O`, the AC50 in [9] is 2.16 µM (active); in [14], 5.21 µM (active); in assay [16], 2.45 µM (active); in assay [17], 5.61 µM (active). Also, at Nonstructural protein 1, the IC50 was 32.2 µM (active). Also, the CC50 was 5.56 µM (active) in assay [10], 7 µM (active) in [11], 5.95 µM (active) in assay [13] and 10.9 µM (active) in [15]. The EC50 in assay [12] is 7.95 µM (active).

For the molecule `CCCCC(=O)NC(c1ccccc1)c1ccc2cccnc2c1O` (configuration not stated), the AC50 in assay [18] was 2.37 µM (active); in [19], 25.5 µM (active); in assay [20], 2.15 µM (active); in [21], 2.13 µM (active); in assay [22], 5.47 µM (active); in assay [24], 3.28 µM (active). For the same molecule, the AC50 in assay [27] is 1.31 µM (active); in assay [28] it was 2.35 µM (active); in assay [30] it was 9.22 µM (active). The EC50 was 1.03 µM (active) in assay [23], 0.502 µM (active) in [25], 7.75 µM (active) in “cells [26]” and > 350 µM (not active) in “cells [29]”.
